{"source": "patent US6355799B1", "about": "“Substituted benzene compounds, process for their preparation, and herbicidal and defoliant compositions containing them” (ISK Americas Incorporated, priority 1997, dated 2002)", "format_in_all_cases": "in vivo", "key": {"[1]": {"test_system": "redroot pigweed (Amaranthus retroflexus, AMARE)", "experiment": "Pre-emerge test, greenhouse herbicide activity screening", "details": "pre-emerge, phytotoxicity rating 0-100 at 14 days after application", "outline": "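Compounds in acetone were track-sprayed at 15-1000 g ai/ha (187 l/ha) on sandy loam pots: pre-emerge one day after seeding, post-emerge at 2-3 leaf stage with 0.25% v/v non-ionic surfactant. Phytotoxicity was rated 14 days later on a 0 (no damage) to 100 (complete death) scale.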"}, "[2]": {"test_system": "barnyardgrass (Echinochloa crus-galli, ECHCG)", "experiment": "Pre-emerge test, greenhouse herbicide activity screening", "details": "pre-emerge, phytotoxicity rating 0-100 at 14 days after application", "outline": "(§1)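 Applied at 15–1000 g ai/ha from acetone in 187 l/ha spray volume. Post-emergence applications included 0.25% v/v non-ionic surfactant and reached plants sown 8–21 days before. Pre-emergence applications were incorporated by surface watering. Efficacy or crop damage was rated on a 0–100 scale after 14 days.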"}, "[3]": {"test_system": "green foxtail (Setaria viridis, SETVI)", "experiment": "Pre-emerge test, greenhouse herbicide activity screening", "details": "pre-emerge, phytotoxicity rating 0-100 at 14 days after application", "outline": "as §1"}, "[4]": {"test_system": "ivyleaf morningglory (Ipomoea hederacea, IPOHE)", "experiment": "Pre-emerge test, greenhouse herbicide activity screening", "details": "pre-emerge, phytotoxicity rating 0-100 at 14 days after application", "outline": "as §1"}, "[5]": {"test_system": "johnsongrass (Sorghum halepense, SORHA)", "experiment": "Pre-emerge test, greenhouse herbicide activity screening", "details": "pre-emerge, phytotoxicity rating 0-100 at 14 days after application", "outline": "as §1"}, "[6]": {"test_system": "lambsquarters (Chenopodium album, CHEAL)", "experiment": "Pre-emerge test, greenhouse herbicide activity screening", "details": "pre-emerge, phytotoxicity rating 0-100 at 14 days after application", "outline": "as §1"}, "[7]": {"test_system": "large crabgrass (Digitaria sanguinalis, DIGSA)", "experiment": "Pre-emerge test, greenhouse herbicide activity screening", "details": "pre-emerge, phytotoxicity rating 0-100 at 14 days after application", "outline": "as §1"}, "[8]": {"test_system": "sicklepod (Cassia obtusifolia, CASOB)", "experiment": "Pre-emerge test, greenhouse herbicide activity screening", "details": "pre-emerge, phytotoxicity rating 0-100 at 14 days after application", "outline": "as §1"}, "[9]": {"test_system": "velvetleaf (Abutilon theophrasti, ABUTH)", "experiment": "Pre-emerge test, greenhouse herbicide activity screening", "details": "pre-emerge, phytotoxicity rating 0-100 at 14 days after application", "outline": "as §1"}, "[10]": {"test_system": "field corn (Zea mays L., var. Dekalb 535, CORN)", "experiment": "Pre-emerge test, crop safety", "details": "crop damage, pre-emerge, phytotoxicity rating 0-100 at 14 days after application", "outline": "(§2)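 Visual ratings on a 0-100 scale (0 no damage, 100 all plants dead) were taken at 14 days after treatment. Rates of 15-1000 g ai/ha in acetone, 187 l/ha, were sprayed onto soil one day after planting (pre-emerge) or onto 2-3 leaf plants with 0.25% v/v surfactant (post-emerge).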"}, "[11]": {"test_system": "upland rice (Oryza sp., var. Tebonnet, RICE)", "experiment": "Pre-emerge test, crop safety", "details": "crop damage, pre-emerge, phytotoxicity rating 0-100 at 14 days after application", "outline": "as §2"}, "[12]": {"test_system": "barnyardgrass (Echinochloa crus-galli, ECHCG)", "experiment": "Post-emerge test, greenhouse herbicide activity screening", "details": "post-emerge, phytotoxicity rating 0-100 at 14 days after application", "outline": "(§3)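 Sandy loam pots; pre-emerge: sown 1 d pre-spray, surface-watered after, then bottom-watered. Post-emerge: sown 8–21 d before, 2–3 leaf stage, + 0.25% v/v NIS, bottom-watered. Acetone, 187 l/ha track spray, 15–1000 g ai/ha. 0–100 injury score, day 14.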"}, "[13]": {"test_system": "green foxtail (Setaria viridis, SETVI)", "experiment": "Post-emerge test, greenhouse herbicide activity screening", "details": "post-emerge, phytotoxicity rating 0-100 at 14 days after application", "outline": "as §3"}, "[14]": {"test_system": "ivyleaf morningglory (Ipomoea hederacea, IPOHE)", "experiment": "Post-emerge test, greenhouse herbicide activity screening", "details": "post-emerge, phytotoxicity rating 0-100 at 14 days after application", "outline": "as §3"}, "[15]": {"test_system": "johnsongrass (Sorghum halepense, SORHA)", "experiment": "Post-emerge test, greenhouse herbicide activity screening", "details": "post-emerge, phytotoxicity rating 0-100 at 14 days after application", "outline": "as §3"}, "[16]": {"test_system": "lambsquarters (Chenopodium album, CHEAL)", "experiment": "Post-emerge test, greenhouse herbicide activity screening", "details": "post-emerge, phytotoxicity rating 0-100 at 14 days after application", "outline": "as §3"}, "[17]": {"test_system": "large crabgrass (Digitaria sanguinalis, DIGSA)", "experiment": "Post-emerge test, greenhouse herbicide activity screening", "details": "post-emerge, phytotoxicity rating 0-100 at 14 days after application", "outline": "as §3"}, "[18]": {"test_system": "redroot pigweed (Amaranthus retroflexus, AMARE)", "experiment": "Post-emerge test, greenhouse herbicide activity screening", "details": "post-emerge, phytotoxicity rating 0-100 at 14 days after application", "outline": "as §3"}, "[19]": {"test_system": "sicklepod (Cassia obtusifolia, CASOB)", "experiment": "Post-emerge test, greenhouse herbicide activity screening", "details": "post-emerge, phytotoxicity rating 0-100 at 14 days after application", "outline": "as §3"}, "[20]": {"test_system": "velvetleaf (Abutilon theophrasti, ABUTH)", "experiment": "Post-emerge test, greenhouse herbicide activity screening", "details": "post-emerge, phytotoxicity rating 0-100 at 14 days after application", "outline": "as §3"}, "[21]": {"test_system": "field corn (Zea mays L., var. Dekalb 535, CORN)", "experiment": "Post-emerge test, crop safety", "details": "post-emerge, crop damage rating 0-100 at 14 days after application", "outline": "as §1"}, "[22]": {"test_system": "upland rice (Oryza sp., var. Tebonnet, RICE)", "experiment": "Post-emerge test, crop safety", "details": "post-emerge, crop damage rating 0-100 at 14 days after application", "outline": "as §1"}}, "data": [{"smiles": "CCC(=O)Nc1c(Cl)cc(Cl)c(-n2nc(C)n(C(F)F)c2=O)c1N", "note": "[Compound 6-19]", "values": [{"measurement": "Pre-emerge Herbicidal Activity AMARE", "setting": "[1]; rate 63 g ai/ha", "result": 30}, {"measurement": "Pre-emerge Herbicidal Activity AMARE", "setting": "[1]; rate 250 g ai/ha", "result": 70}, {"measurement": "Pre-emerge Herbicidal Activity ECHCG", "setting": "[2]; rate 63 g ai/ha", "result": 0}, {"measurement": "Pre-emerge Herbicidal Activity ECHCG", "setting": "[2]; rate 250 g ai/ha", "result": 0}, {"measurement": "Pre-emerge Herbicidal Activity SETVI", "setting": "[3]; rate 63 g ai/ha", "result": 0}, {"measurement": "Pre-emerge Herbicidal Activity SETVI", "setting": "[3]; rate 250 g ai/ha", "result": 10}, {"measurement": "Pre-emerge Herbicidal Activity IPOHE", "setting": "[4]; rate 63 g ai/ha", "result": 0}, {"measurement": "Pre-emerge Herbicidal Activity IPOHE", "setting": "[4]; rate 250 g ai/ha", "result": 0}, {"measurement": "Pre-emerge Herbicidal Activity SORHA", "setting": "[5]; rate 63 g ai/ha", "result": 0}, {"measurement": "Pre-emerge Herbicidal Activity SORHA", "setting": "[5]; rate 250 g ai/ha", "result": 0}, {"measurement": "Pre-emerge Herbicidal Activity CHEAL", "setting": "[6]; rate 63 g ai/ha", "result": 70}, {"measurement": "Pre-emerge Herbicidal Activity CHEAL", "setting": "[6]; rate 250 g ai/ha", "result": 90}, {"measurement": "Pre-emerge Herbicidal Activity DIGSA", "setting": "[7]; rate 63 g ai/ha", "result": 0}, {"measurement": "Pre-emerge Herbicidal Activity DIGSA", "setting": "[7]; rate 250 g ai/ha", "result": 0}, {"measurement": "Pre-emerge Herbicidal Activity CASOB", "setting": "[8]; rate 63 g ai/ha", "result": 0}, {"measurement": "Pre-emerge Herbicidal Activity CASOB", "setting": "[8]; rate 250 g ai/ha", "result": 0}, {"measurement": "Pre-emerge Herbicidal Activity ABUTH", "setting": "[9]; rate 63 g ai/ha", "result": 20}, {"measurement": "Pre-emerge Herbicidal Activity ABUTH", "setting": "[9]; rate 250 g ai/ha", "result": 50}, {"measurement": "Pre-emerge Herbicidal Activity CORN", "setting": "[10]; rate 63 g ai/ha", "result": 0}, {"measurement": "Pre-emerge Herbicidal Activity CORN", "setting": "[10]; rate 250 g ai/ha", "result": 0}, {"measurement": "Pre-emerge Herbicidal Activity RICE", "setting": "[11]; rate 63 g ai/ha", "result": 0}, {"measurement": "Pre-emerge Herbicidal Activity RICE", "setting": "[11]; rate 250 g ai/ha", "result": 0}, {"measurement": "Post-emerge Herbicidal Activity ECHCG", "setting": "[12]; 63 g ai/ha", "result": 0}, {"measurement": "Post-emerge Herbicidal Activity ECHCG", "setting": "[12]; 250 g ai/ha", "result": 0}, {"measurement": "Post-emerge Herbicidal Activity SETVI", "setting": "[13]; 63 g ai/ha", "result": 0}, {"measurement": "Post-emerge Herbicidal Activity SETVI", "setting": "[13]; 250 g ai/ha", "result": 0}, {"measurement": "Post-emerge Herbicidal Activity IPOHE", "setting": "[14]; 63 g ai/ha", "result": 0}, {"measurement": "Post-emerge Herbicidal Activity IPOHE", "setting": "[14]; 250 g ai/ha", "result": 30}, {"measurement": "Post-emerge Herbicidal Activity SORHA", "setting": "[15]; 63 g ai/ha", "result": 0}, {"measurement": "Post-emerge Herbicidal Activity SORHA", "setting": "[15]; 250 g ai/ha", "result": 0}, {"measurement": "Post-emerge Herbicidal Activity CHEAL", "setting": "[16]; 63 g ai/ha", "result": 0}, {"measurement": "Post-emerge Herbicidal Activity CHEAL", "setting": "[16]; 250 g ai/ha", "result": 60}, {"measurement": "Post-emerge Herbicidal Activity DIGSA", "setting": "[17]; 63 g ai/ha", "result": 0}, {"measurement": "Post-emerge Herbicidal Activity DIGSA", "setting": "[17]; 250 g ai/ha", "result": 0}, {"measurement": "Post-emerge Herbicidal Activity AMARE", "setting": "[18]; 63 g ai/ha", "result": 0}, {"measurement": "Post-emerge Herbicidal Activity AMARE", "setting": "[18]; 250 g ai/ha", "result": 30}, {"measurement": "Post-emerge Herbicidal Activity CASOB", "setting": "[19]; 63 g ai/ha", "result": 0}, {"measurement": "Post-emerge Herbicidal Activity CASOB", "setting": "[19]; 250 g ai/ha", "result": 0}, {"measurement": "Post-emerge Herbicidal Activity ABUTH", "setting": "[20]; 63 g ai/ha", "result": 0}, {"measurement": "Post-emerge Herbicidal Activity ABUTH", "setting": "[20]; 250 g ai/ha", "result": 50}, {"measurement": "Post-emerge Herbicidal Activity CORN", "setting": "[21]; 63 g ai/ha", "result": 0}, {"measurement": "Post-emerge Herbicidal Activity CORN", "setting": "[21]; 250 g ai/ha", "result": 0}, {"measurement": "Post-emerge Herbicidal Activity RICE", "setting": "[22]; 63 g ai/ha", "result": 0}, {"measurement": "Post-emerge Herbicidal Activity RICE", "setting": "[22]; 250 g ai/ha", "result": 0}]}]}
